From ChEMBL document CHEMBL1938249, “Synthesis, antimalarial activity, and structure-activity relationship of 7-(2-phenoxyethoxy)-4(1H)-quinolones” (J Med Chem, 2011) come the findings set out here.

Each structure is given as a SMILES string.

Series [1] has as its system Plasmodium falciparum. Kind of series: Antimalarial activity against chloroquine-, pyrimethamine-resistant ring stage Plasmodium falciparum W2 infected in human A positive erythrocytes after 72 hrs by SYBR green 1-based fluorescence assay. Type of series: functional, organism-based. Conditions: W2, 72 h.
Series [2] deals with Plasmodium falciparum. Kind of series: Antimalarial activity against chloroquine-, mefloquine-, pyrimethamine-,atovaquone-resistant ring stage Plasmodium falciparum TM90-C2B infected in human A positive erythrocytes after 72 hrs by SYBR green 1-based fluorescence assay. Format: functional, organism-based.
Series [3] deals with Plasmodium falciparum. Kind of series: Resistance ratio, ratio of EC50 for chloroquine-, mefloquine, pyrimethamine-,atovaquone-resistant ring stage Plasmodium falciparum TM90-C2B to EC50 for chloroquine-, pyrimethamine-resistant Plasmodium falciparum W2. Type of series: functional.
The subject of series [4] is J774. Kind of series: Antiproliferative against mouse J774 cells after 72 hrs by Cell titer assay. Type of series: cell-based. Conditions: J774, 72 h.
Series [5] deals with J774. Kind of series: Antiproliferative against mouse J774 cells at < 20 uM after 72 hrs by Cell titer assay. Format: cell-based. Conditions: j774, 72 h.
The nature of series [6]: Cytotoxicity index, ratio of EC50 for mouse J774 cells to EC50 for chloroquine-, mefloquine, pyrimethamine-,atovaquone-resistant ring stage Plasmodium falciparum TM90-C2B. Conditions: read-out: Ratio EC50. Type of series: cell-based.

Usually EC50 stands for the concentration giving half of the maximal effect. A high value points to weaker potency. In the case of `CCCCc1cc2c(=O)c(-c3c(C)noc3C)c(C)[nH]c2cc1OCCOc1ccccc1`, the 50% effective concentration (EC50) in series [1] stood at 27 nM; in series [2], 128 nM; in series [4], 22000 nM. Also, the “Ratio EC50” value in series [3] was determined as 4.73. Besides, the Activity result in series [5] is listed as “Non-toxic”. Also, the selectivity ratio in series [6] is no less than 100.

Consider `CCCCc1cc2c(=O)c(-c3ccccc3)c(C)[nH]c2cc1OCCOc1ccccc1`, for which the half-maximal effective concentration (EC50) in series [1] is 1070 nM; in series [2] it was 764 nM; in series [4], 23000 nM. Moreover, the “Ratio EC50” value in series [3] was 0.71. Moreover, the Activity entry in series [5] was “Non-toxic”. The selectivity ratio in series [6] was no less than 100.

As to `CCCCc1cc2c(=O)c(-c3ccc(C(F)(F)F)cc3F)c(C)[nH]c2cc1OCCOc1ccccc1`, the EC50 was 27.9 nM in series [1], 30.9 nM in series [2] and 19000 nM in series [4]. Further, in series [3], the “Ratio EC50” value was found to be 1.11. In series [5], the Activity result was “Non-toxic”. Moreover, the selectivity ratio in series [6] is no less than 100.

As for `CCc1c(C)[nH]c2cc(OCCCN3CCN(c4ccccc4)CC3)c(Cl)cc2c1=O`, the results for the EC50 in series [1], in series [2] and in series [4] were 976 nM, 91.7 nM and greater than 23000 nM, respectively. Further, the “Ratio EC50” value in series [3] was 0.09. Moreover, the Activity entry in series [5] is listed as “Non-toxic”. The selectivity ratio in series [6] was no less than 100.

Consider `CCCCc1cc2c(=O)c(-c3ccc(C)cc3C)c(C)[nH]c2cc1OCCOc1ccccc1`, for which the EC50 is 907 nM in series [1], 1630 nM in series [2] and 22000 nM in series [4]. Moreover, in series [3], the “Ratio EC50” value worked out at 1.79. Moreover, the Activity result in series [5] was “Non-toxic”. Also, in series [6], the selectivity ratio is no less than 100.

In the case of `CCCCc1cc2c(=O)c(-c3cccc(Oc4ccc(F)cc4)c3)c(C)[nH]c2cc1OCCOc1ccccc1`, the EC50 stood at 1390 nM in series [1], 1000 nM in series [2] and 19000 nM in series [4]. For the same compound, the “Ratio EC50” value in series [3] came out at 0.72. Moreover, in series [5], the Activity result is recorded as “Non-toxic”. For the same compound, the selectivity ratio in series [6] was no less than 100.

In series [2], `O=C1C(O)=C([C@H]2CC[C@H](c3ccc(Cl)cc3)CC2)C(=O)c2ccccc21` [ATOVAQUONE] yielded an EC50 greater than 170 nM.

Take `CCc1c(C)[nH]c2cc(OCCOc3ccccc3)c(Cl)cc2c1=O`: the EC50 in series [1] was 256 nM; in series [2] it was 72.1 nM; in series [4], greater than 28000 nM. Also, the “Ratio EC50” value in series [3] is 0.28. Further, in series [5], the Activity result is recorded as “Non-toxic”. For the same compound, the selectivity ratio in series [6] is no less than 100.

For `COC(=O)c1c[nH]c2cc(OC)c(Cl)cc2c1=O`, the EC50 in series [1] amounted to 134 nM; in series [2], 765 nM; in series [4], 37000 nM. The “Ratio EC50” value in series [3] was found to be 5.7. In addition, the Activity result in series [5] is given as “Non-toxic”. Also, in series [6], the selectivity ratio was no less than 100.

For the compound `CCCCc1cc2c(=O)c(-c3ccc(C(F)(F)F)cc3)c(C)[nH]c2cc1OCCOc1ccccc1`, the EC50 in series [1] was 509 nM; in series [2] it was 2450 nM; in series [4], 20000 nM. The “Ratio EC50” value in series [3] was 4.82. Moreover, the Activity entry in series [5] is reported as “Non-toxic”. The selectivity ratio in series [6] is no less than 100.

Regarding `CCCCc1cc2c(=O)c(-c3ccc(COc4ccc(OC(F)(F)F)cc4)cc3)c(C)[nH]c2cc1OCCOc1ccccc1`, the EC50 in series [1] came out at 4050 nM; in series [2], 4050 nM; in series [4] it was 16000 nM. In addition, the “Ratio EC50” value in series [3] is recorded as 1. The Activity entry in series [5] was “Non-toxic”. Further, in series [6], the selectivity ratio was no less than 100.

As for `CCc1c(C)[nH]c2cc(OCCCO)c(Cl)cc2c1=O`, the figures for the EC50 in series [1] and in series [2] were 8450 nM and 776 nM, respectively. In addition, the “Ratio EC50” value in series [3] was found to be 0.09. In addition, the Activity result in series [5] is “Non-toxic”. Further, in series [6], the selectivity ratio was no less than 100.

For `CCCCc1cc2c(=O)c(-c3ccc(Cl)cc3C)c(C)[nH]c2cc1OCCOc1ccccc1`, the EC50 in series [1] is 68.7 nM; in series [2] it was 542 nM; in series [4], greater than 21000 nM. Also, the “Ratio EC50” value in series [3] was 7.89. In addition, the Activity entry in series [5] is on record as “Non-toxic”. Further, the selectivity ratio in series [6] was no less than 100.

`CCc1c(C)[nH]c2cc(OCCOc3ccccc3)c(C)cc2c1=O`: the EC50 in series [1] is 255 nM; in series [2] it was 27.7 nM; in series [4] it was greater than 30000 nM. Also, in series [3], the “Ratio EC50” value is given as 0.11. Moreover, in series [5], the Activity result is “Non-toxic”. The selectivity ratio in series [6] is no less than 100.

As for `CCc1c(C)[nH]c2cc(OCCN3CCOCC3)c(Cl)cc2c1=O`, the EC50 in series [1] came to 5090 nM; in series [2] it was 726 nM. Further, the “Ratio EC50” value in series [3] is given as 0.14. Besides, the Activity entry in series [5] is “Non-toxic”. Moreover, the selectivity ratio in series [6] was no less than 100.

On to `CCCCc1cc2c(=O)c(-c3ccc(C(F)(F)F)cc3C)c(C)[nH]c2cc1OCCOc1ccccc1`, for which the EC50 in series [1] was found to be 71.8 nM; in series [2] it was 140 nM; in series [4], 20000 nM. Moreover, the “Ratio EC50” value in series [3] turned out to be 1.95. The Activity entry in series [5] was “Non-toxic”. Further, the selectivity ratio in series [6] was no less than 100.

`CCc1c(C)[nH]c2cc(OCCOc3ccccc3)ccc2c1=O`: the EC50 in series [1] was determined as 104 nM; in series [2] it was 71.3 nM; in series [4], 4000 nM. In addition, in series [3], the “Ratio EC50” value amounted to 0.79. Further, in series [5], the Activity result was “Non-toxic”. In addition, the selectivity ratio in series [6] is no less than 100.

Turning to `CCCCc1cc2c(=O)c(-c3cccnc3)c(C)[nH]c2cc1OCCOc1ccccc1`, the results for the EC50 in series [1], in series [2] and in series [4] were 1350 nM, 588 nM and 23000 nM, respectively. Also, in series [3], the “Ratio EC50” value is recorded as 0.44. For the same compound, the Activity result in series [5] is given as “Non-toxic”. The selectivity ratio in series [6] was no less than 100.

`CCCCc1cc2c(=O)cc(C)[nH]c2cc1OCCOc1ccccc1`: the results for the EC50 in series [1], in series [2] and in series [4] were 216 nM, 44.1 nM and 28000 nM, respectively. The “Ratio EC50” value in series [3] is given as 0.2. For the same compound, the Activity entry in series [5] was “Non-toxic”. The selectivity ratio in series [6] was no less than 100.

For the compound `CCCCc1cc2c(=O)c(C(=O)OC)c[nH]c2cc1OCCOc1ccccc1`, the values for the EC50 in series [1], in series [2] and in series [4] were 0.05 nM, 11.2 nM and 46000 nM, respectively. In series [3], the “Ratio EC50” value was 223. Moreover, the Activity entry in series [5] is “Non-toxic”. Further, the selectivity ratio in series [6] is no less than 100.

`CCc1c(C)[nH]c2cc(OCCN(C)C)c(Cl)cc2c1=O`: the results for the EC50 in series [1] and in series [2] were 5050 nM and 604 nM, respectively. Besides, in series [3], the “Ratio EC50” value was 0.12. Also, in series [5], the Activity result was “Non-toxic”. Also, the selectivity ratio in series [6] is no less than 100.

In the case of `CCCCc1cc2c(=O)c(-c3ccc(Oc4ccc(OC(F)(F)F)cc4)cc3C)c(C)[nH]c2cc1OCCOc1ccccc1`, the EC50 turned out to be 58.5 nM in series [1], 475 nM in series [2] and 16000 nM in series [4]. The “Ratio EC50” value in series [3] is recorded as 8.12. Further, the Activity result in series [5] was “Non-toxic”. Also, in series [6], the selectivity ratio is no less than 100.

Regarding `CCc1c(C)[nH]c2cc(OCCCOC(=O)C(CC)C(C)=O)c(Cl)cc2c1=O` (stereo not given), the EC50 in series [1] and in series [2] was 6130 nM in each case. In addition, the “Ratio EC50” value in series [3] is reported as 1. Also, the Activity result in series [5] was “Non-toxic”. Besides, the selectivity ratio in series [6] was no less than 100.

For `CCCCc1cc2c(=O)c(-c3ccc(OC(F)(F)F)cc3)c(C)[nH]c2cc1OCCOc1ccccc1`, the EC50 was determined as 3220 nM in series [1], 2510 nM in series [2] and 20000 nM in series [4]. In addition, the “Ratio EC50” value in series [3] is reported as 0.78. For the same compound, the Activity result in series [5] is on record as “Non-toxic”. Also, the selectivity ratio in series [6] is no less than 100.

As to `CCc1c(C)[nH]c2cc(OCCOc3ccccc3)c(Br)cc2c1=O`, the EC50 in series [1] was 203 nM; in series [2], 43.5 nM; in series [4], greater than 25000 nM. Moreover, the “Ratio EC50” value in series [3] is 0.21. For the same compound, the Activity entry in series [5] is “Non-toxic”. The selectivity ratio in series [6] is no less than 100.

Take `CCCCc1cc2c(=O)c(CC)c(C)[nH]c2cc1OCCOc1ccccc1`: the results for the EC50 in series [1], in series [2] and in series [4] were 1.92 nM, 0.15 nM and 1000 nM, respectively. Also, the “Ratio EC50” value in series [3] came to 0.08. In addition, in series [5], the Activity result is “Non-toxic”. Further, in series [6], the selectivity ratio was no less than 100.

`CCCCc1cc2c(=O)c(-c3ccncc3)c(C)[nH]c2cc1OCCOc1ccccc1`: the EC50 was 3150 nM in series [1], 1020 nM in series [2] and 23000 nM in series [4]. In addition, the “Ratio EC50” value in series [3] is 0.32. For the same compound, the Activity entry in series [5] was “Non-toxic”. Further, in series [6], the selectivity ratio was no less than 100.

For the compound `CCc1c(C)[nH]c2cc(OCOC)c(Cl)cc2c1=O`, the values for the EC50 in series [1], in series [2] and in series [4] were 908 nM, 79.7 nM and 19000 nM, respectively. Further, in series [3], the “Ratio EC50” value was 0.09. Also, the Activity result in series [5] is given as “Non-toxic”. Also, in series [6], the selectivity ratio is no less than 100.

For the compound `CCc1c(C)[nH]c2cc(OCCOc3ccccc3)c(OC)cc2c1=O`, the EC50 in series [1] was 184 nM; in series [2] it was 19.5 nM; in series [4], greater than 29000 nM. Also, the “Ratio EC50” value in series [3] was 0.11. Moreover, the Activity entry in series [5] is reported as “Non-toxic”. Also, the selectivity ratio in series [6] is no less than 100.
